Patent publication EP4603105A1, “PHARMACEUTICAL COMPOSITION CONTAINING CYCLIC COMPOUND HAVING SELECTIVE KRAS INHIBITORY EFFECT AGAINST HRAS AND NRAS” (CHUGAI SEIYAKU KABUSHIKI KAISHA, priority 2022, dated 2024)
*1 amine or outer side, *2 acyl side, *3 side chain or, on linkers, in order; H or OH if unused. Where a SMILES comes first, the peptide text is derived from it. Bridges are numbered along the chain shown (N, C = ends). [ ]: non-standard residue; d: D form. The star is where a group is joined. hPhe(3-Cl-4-CF3) = N[C@@H](CCc1ccc(C(F)(F)F)c(Cl)c1)C(=O)O; NPrPhe(4-CF3) = CCCN[C@@H](Cc1ccc(C(F)(F)F)cc1)C(=O)O; 3Oxa8azabicyclo(3.2.1)octane = C1CC2COCC1N2*; NEtPhe(4-Me) = CCN[C@@H](Cc1ccc(C)cc1)C(=O)O; X8 = CCCN([C@@H](COCCC(C)C)C(=O)[*:2])[*:1]; NMeGly(cPent) = CN[C@H](C(=O)O)C1CCCC1; Hyp = O=C(O)[C@@H]1C[C@@H](O)CN1; NMeD = CN[C@@H](CC(=O)O)C(=O)O; NMeL = CN[C@@H](CC(C)C)C(=O)O; NMeV = CN[C@H](C(=O)O)C(C)C; Morpholide = C1CN(*)CCO1; NMeA = CN[C@@H](C)C(=O)O; Ac5c = NC1(C(=O)O)CCCC1; Aze = O=C(O)[C@@H]1CCN1; Ac4c = NC1(C(=O)O)CCC1; NEtG = CCNCC(=O)O; Sar = CNCC(=O)O

Legend:
[1] = target: GDP-bound KRAS wild-type protein (Homo sapiens, UniProt P01116); assay: Binding to KRAS by surface plasmon resonance (SPR), dissociation constant KD
GDP-bound KRAS wild-type protein, sequence (P01116 1-188 isoform P01116-2): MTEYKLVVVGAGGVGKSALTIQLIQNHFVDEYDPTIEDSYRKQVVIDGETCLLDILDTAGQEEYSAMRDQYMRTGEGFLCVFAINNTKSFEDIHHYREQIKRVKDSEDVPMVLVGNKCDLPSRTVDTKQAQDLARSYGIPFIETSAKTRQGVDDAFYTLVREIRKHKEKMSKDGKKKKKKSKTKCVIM
Method in brief: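 Biotinylated GDP-bound RAS was captured at about 100–300 RU. Running buffer: HBS pH 7.4, 10 mM MgCl2, 10 µM GDP, 1 mM DTT, 0.01% Tween 20, 4% DMSO.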

[2] = tested on: human lung cancer strain NCI-H441; type: cell-based
Method in brief: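 Readout: […] after the ATP-based reagent. Compound: serial dilutions in dimethyl sulfoxide.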

[3] = target: HRAS wild-type protein (Homo sapiens, UniProt P01112); assay: Binding to HRAS by surface plasmon resonance (SPR), KD and KD ratio to KRAS
HRAS wild-type protein, sequence (P01112 whole entry): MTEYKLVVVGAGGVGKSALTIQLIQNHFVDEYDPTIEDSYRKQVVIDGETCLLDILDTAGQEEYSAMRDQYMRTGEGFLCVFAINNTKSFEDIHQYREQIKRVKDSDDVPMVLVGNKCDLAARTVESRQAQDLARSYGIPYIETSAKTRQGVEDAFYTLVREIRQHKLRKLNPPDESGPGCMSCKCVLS
Method in brief: (§1)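 GDP-loaded biotinylated Avi-tag RAS proteins (E. coli-expressed) captured on a Biotin CAPture chip at ~100–300 RU; single-cycle kinetics at 30°C, 100 µL/min, 75 s injections of rising compound concentrations. HBS pH 7.4 running buffer with 1 mM DTT, 10 mM MgCl2, 10 µM GDP, 4% DMSO. KD from 1:1 binding fit.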

[4] = target: GDP-bound NRAS wild-type protein (Homo sapiens, UniProt P01111); assay: Binding to NRAS by surface plasmon resonance (SPR), KD and KD ratio to KRAS
GDP-bound NRAS wild-type protein, sequence (P01111 whole entry): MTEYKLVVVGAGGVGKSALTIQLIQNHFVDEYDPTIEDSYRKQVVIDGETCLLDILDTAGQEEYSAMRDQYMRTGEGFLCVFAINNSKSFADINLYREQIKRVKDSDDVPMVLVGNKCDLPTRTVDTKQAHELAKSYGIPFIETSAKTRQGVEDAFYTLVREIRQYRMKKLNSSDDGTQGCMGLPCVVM
Method in brief: as §1

[5] = ratio of KD for HRAS wild-type protein to KD for KRAS
[6] = ratio of KD for GDP-bound NRAS wild-type protein to KD for KRAS
[7] = Single Cycle Kinetics, 1:1 binding model
[8] = ratio of the KD value with respect to HRAS wild-type protein to the KD value with respect to KRAS
[9] = ratio of the KD value with respect to GDP-bound NRAS wild-type protein to the KD value with respect to KRAS
[10] = ratio of KD value for HRAS wild-type protein to KD value for KRAS (SPR)
[11] = ratio of KD value for GDP-bound NRAS wild-type protein to KD value for KRAS (SPR)

Structure (SMILES)	Kd ([1]; 1:1 binding model) [nM]	IC50 [2] [nM]	HRAS /KRAS [3, 5]	NRAS /KRAS [4, 6]	Kd [1, 7] [nM]	HRAS /KRAS [3, 8]	NRAS /KRAS [4, 9]	Kd ([1]; Single Cycle Kinetics) [nM]	HRAS /KRAS [3, 10]	NRAS /KRAS [4, 11]
CCCN1C(=O)CN(C)C(=O)[C@@H]2CCN2C(=O)[C@H]([C@@H](C)CC)NC(=O)[C@H](CC(C)C)N(C)C(=O)C[C@@H](C(=O)N2CCOCC2)N(C)C(=O)[C@H](C2CCCC2)N(C)C(=O)C2(CCCC2)NC(=O)[C@@H]2C[C@@H](OC)CN2C(=O)[C@H](CCc2ccc(C(F)(F)F)c(Cl)c2)NC(=O)CN(C)C(=O)[C@@H]1Cc1ccc(C(F)(F)F)cc1 [PP0309] ([NMeL]I[Aze][Sar][NPrPhe(4-CF3)][Sar][hPhe(3-Cl-4-CF3)][Hyp](Me)[Ac5c][NMeGly(cPent)][NMeD]-Morpholide; lactam N-11)	0.29	11.7	B (a compound having 3 or more and less than 10 is denoted as B)	B (a compound having 3 or more and less than 10 is denoted as B)	–	–	–	–	–	–
CCC[C@H]1C(=O)N[C@@H]([C@H](C)CC)C(=O)N(C)CC(=O)N(C)[C@H]2C/C=C\CCN(C2=O)[C@@H](Cc2ccc(C)cc2)C(=O)N(C)CC(=O)N[C@@H](CCc2ccc(C(F)(F)F)c(Cl)c2)C(=O)N2C[C@H](OCC)C[C@H]2C(=O)NC2(CC(C)(C)C2)C(=O)N(C)[C@@H](C2CCCC2)C(=O)N(C)[C@H](C(=O)N(C)C)CC(=O)N1C [PP2221]	–	40.5	–	–	1.7	A (a compound having 10 or more and less than 20 is denoted as A)	A (a compound having 10 or more and less than 20 is denoted as A)	–	–	–
CCO[C@@H]1C[C@H]2C(=O)NC3(CC(C)(C)C3)C(=O)N(C)[C@@H](C3CCCC3)C(=O)N(C)[C@H](C(=O)N(C)CC)CC(=O)N(C)[C@@H]([C@H](C)OC)C(=O)N[C@@H]([C@@H](C)CC)C(=O)N(C3CC3)CC(=O)N(C)[C@H]3C/C=C\CCN(C3=O)[C@@H](Cc3ccc(C)cc3)C(=O)N(C)CC(=O)N[C@@H](CCc3ccc(C(F)(F)F)c(Cl)c3)C(=O)N2C1 [PP3159]	0.6	50.1	A (a compound having 10 or more and less than 20 is denoted as A)	A (a compound having 10 or more and less than 20 is denoted as A)	–	–	–	–	–	–
CCO[C@@H]1C[C@H]2C(=O)NC3(CC(C)(C)C3)C(=O)N(C)[C@@H](C3CCCC3)C(=O)N(C)[C@H](C(=O)N(C)CC)CC(=O)N(C)[C@@H]([C@H](C)OC)C(=O)N[C@@H]([C@@H](C)CC)C(=O)N3CCC[C@H]3C(=O)N(C)[C@H]3C/C=C\CCN(C3=O)[C@@H](Cc3ccc(C)cc3)C(=O)N(C)CC(=O)N[C@@H](CCc3cc(F)c(C(F)(F)F)c(F)c3)C(=O)N2C1 [PP3163]	1.8	296	A (a compound having 10 or more and less than 20 is denoted as A)	A (a compound having 10 or more and less than 20 is denoted as A)	–	–	–	–	–	–
CC[C@H](C)[C@@H]1NC(=O)[C@H](CC(C)C)N(C)C(=O)C[C@@H](C(=O)N2CCOCC2)N(C)C(=O)[C@H](C2CCCC2)N(C)C(=O)C2(CCC2)NC(=O)[C@@H]2[C@@H](OCC3CCCC3)CCN2C(=O)[C@H](CCc2cc(F)c(C(F)(F)F)c(F)c2)NC(=O)CN(C)C(=O)[C@H](Cc2ccc(C(F)(F)F)cc2)N2CCCCC[C@@H](C2=O)N(C)C(=O)CN(C)C1=O [PP1011]	–	314	B (a compound having 3 or more and less than 10 is denoted as B)	A (a compound having 10 or more and less than 20 is denoted as A)	–	–	–	3.7	–	–
CCCN1C(=O)[C@@H]2CCN2C(=O)[C@H](C)N(C)C(=O)[C@H]([C@@H](C)CC)NC(=O)[C@H](CC(C)C)N(C)C(=O)C[C@@H](C(=O)N2CCOCC2)N(C)C(=O)[C@H](C2CCCC2)N(C)C(=O)C2(CCC2)NC(=O)[C@@H]2CCCN2C(=O)[C@H](CCc2ccc(C(F)(F)F)c(Cl)c2)NC(=O)CN(C)C(=O)[C@@H]1COCCC(C)C [PP1819] ([NMeL]I[NMeA][Aze][X8][Sar][hPhe(3-Cl-4-CF3)]P[Ac4c][NMeGly(cPent)][NMeD]-Morpholide; lactam N-11)	–	149	–	–	1	–	–	–	C (A compound having a KD ratio of 0.1 or more and less than 3 is denoted as C)	C (A compound having a KD ratio of 0.1 or more and less than 3 is denoted as C)
CC[C@H](C)[C@@H]1NC(=O)[C@H](CC(C)C)N(C)C(=O)C[C@@H](C(=O)N2CCOCC2)N(C)C(=O)[C@H](C2CCCC2)N(C)C(=O)C2(CCCC2)NC(=O)[C@@H]2CCCN2C(=O)[C@H](CCc2ccc(C(F)(F)F)c(Cl)c2)NC(=O)CN(C)C(=O)[C@H](Cc2ccccc2)N2CCCC[C@@H](C2=O)N(C)C(=O)CN(C)C1=O [PP0529]	–	6.5	–	–	0.095	B (a compound having 3 or more and less than 10 is denoted as B)	C (A compound having a KD ratio of 0.1 or more and less than 3 is denoted as C)	–	–	–
CCCN1C(=O)CN(CC)C(=O)CN(C)C(=O)[C@H]([C@@H](C)CC)NC(=O)[C@H](CC(C)C)N(C)C(=O)C[C@@H](C(=O)N2CCOCC2)N(C)C(=O)[C@H](C2CCCC2)N(C)C(=O)C2(CCC2)NC(=O)[C@@H]2CCCN2C(=O)[C@H](CCc2ccc(C(F)(F)F)c(Cl)c2)NC(=O)CN(C)C(=O)[C@@H]1Cc1ccc(C(F)(F)F)cc1 [PP1948] ([NMeL]I[Sar][NEtG][NPrPhe(4-CF3)][Sar][hPhe(3-Cl-4-CF3)]P[Ac4c][NMeGly(cPent)][NMeD]-Morpholide; lactam N-11)	–	16.2	–	–	0.41	C (A compound having a KD ratio of 0.1 or more and less than 3 is denoted as C)	C (A compound having a KD ratio of 0.1 or more and less than 3 is denoted as C)	–	–	–
CCCN1C(=O)[C@@H]2CCN2C(=O)[C@H](C)N(C)C(=O)[C@H]([C@@H](C)CC)NC(=O)[C@H](CC(C)C)N(C)C(=O)C[C@@H](C(=O)N2C3CCC2COC3)N(C)C(=O)[C@H](C2CCCC2)N(C)C(=O)C2(CCCC2)NC(=O)[C@@H]2CCCN2C(=O)[C@H](CCc2ccc(C(F)(F)F)c(Cl)c2)NC(=O)CN(C)C(=O)[C@@H]1Cc1ccc(C(F)(F)F)cc1 [PP0182] ([NMeL]I[NMeA][Aze][NPrPhe(4-CF3)][Sar][hPhe(3-Cl-4-CF3)]P[Ac5c][NMeGly(cPent)][NMeD]-{3Oxa8azabicyclo(3.2.1)octane}; lactam N-11)	0.88	6.2	B (a compound having 3 or more and less than 10 is denoted as B)	C (A compound having a KD ratio of 0.1 or more and less than 3 is denoted as C)	–	–	–	–	–	–
CC[C@H](C)[C@@H]1NC(=O)[C@H](CC(C)C)N(C)C(=O)C[C@@H](C(=O)N2CCOCC2)N(C)C(=O)[C@H](C(C)C)N(C)C(=O)C2(CCCC2)NC(=O)[C@@H]2CCCN2C(=O)[C@H](CCc2ccc(C(F)(F)F)c(Cl)c2)NC(=O)CN(C)C(=O)[C@H](Cc2ccc(C)cc2)N(CC)C(=O)CN(C)C(=O)CN(C)C1=O [PP0044] ([NMeL]I[Sar][Sar][NEtPhe(4-Me)][Sar][hPhe(3-Cl-4-CF3)]P[Ac5c][NMeV][NMeD]-Morpholide; lactam N-11)	3.6	142	C (A compound having a KD ratio of 0.1 or more and less than 3 is denoted as C)	C (A compound having a KD ratio of 0.1 or more and less than 3 is denoted as C)	–	–	–	–	–	–
CC[C@H](C)[C@@H]1NC(=O)[C@H](CC(C)C)N(C)C(=O)C[C@@H](C(=O)N2CCOCC2)N(C)C(=O)[C@H](C2CCCC2)N(C)C(=O)C2(CCCC2)NC(=O)[C@@H]2CCCN2C(=O)[C@H](CCc2ccc(C(F)(F)F)c(Cl)c2)NC(=O)CN(C)C(=O)[C@H](Cc2ccccc2)N2CC=CC[C@@H](C2=O)N(C)C(=O)CN(C)C1=O [PP0528]	–	21.8	–	–	0.37	C (A compound having a KD ratio of 0.1 or more and less than 3 is denoted as C)	C (A compound having a KD ratio of 0.1 or more and less than 3 is denoted as C)	–	–	–
CCCN1C(=O)C[C@@H](C(=O)N(C)C)N(C)C(=O)[C@H](C2CCCC2)N(C)C(=O)C2(CCC2)NC(=O)[C@@H]2C[C@@H](OCC)CN2C(=O)[C@H](CCc2cc(F)c(C(F)(F)F)c(F)c2)NC(=O)CN(C)C(=O)[C@H](Cc2ccc(C(F)(F)F)cc2)N2CC/C=C\C[C@@H](C2=O)N(C)C(=O)CN(C)C(=O)[C@H]([C@@H](C)CC)NC(=O)[C@@H]1CC(C)C [PP1825]	–	8	–	–	0.14	–	–	–	A (a compound having 10 or more and less than 20 is denoted as A)	A (a compound having 10 or more and less than 20 is denoted as A)
